Source: patent EP3352763B1 (priority 2015, dated 2017)

Legend:
[1] = system: Influenzavirus A/Regensburg/D6/2009/H1N1; test: Screening of antiviral effect of test substances (Fig. 1); type: cell-based; settings: for antivirale Aktivität: Fig. 1, result in words
[2] = system: A/Mississippi/3/2001/H1N1; type: cell-based, Influenzaviren; settings: TC50/EC50, A/Mississippi/3/2001/H1N1
in vitro [3] = settings: monkey, vero cells
[4] = system: Influenza-Viren vom Stamm A/Regensburg/D6/2009/H1N1; type: cell-based
A/Victoria/3/75/H3N2 = type: cell-based, Influenzaviren
[5] = system: A/Regensburg/D6/2009/H1N1; type: cell-based, Influenzaviren; settings: TC50/EC50, A/Regensburg/D6/2009/H1N1
Hantaviren = type: cell-based
in vitro [6] = settings: dog, mdck

Compound | antivirale Aktivität [1] | Selektivitätsindex (S.I.) [2] | CC50 (in vitro [3]) [µM] | antivirale Wirkung (Reduktion der Viruslast) [4] [%] | antiviraler Effekt [4] | Reduktion der Viruslast ([4]; pre-incubation of the viruses with Tilirosid) | Selektivitätsindex (S.I.) (A/Victoria/3/75/H3N2) | TC50 (A549-Zellen) [µM] | Selektivitätsindex (S.I.) [5] | Wirkung gegen Hantaviren (Hantaviren) | Reduktion der Viruslast ([1]; Fig. 1, screening of substances) [%] | CC50 (in vitro [6]) [µM]
O=C(O)c1cc(O)c(O)c(O)c1 [Gallussäure, reference compound] | antivirale Aktivität |  |  |  |  |  |  |  |  |  |  | 
O=C(/C=C/c1ccc(O)cc1)OC[C@H]1O[C@@H](Oc2c(-c3ccc(O)cc3)oc3cc(O)cc(O)c3c2=O)[C@H](O)[C@@H](O)[C@@H]1O [Tilirosid, Kaempferol-3-(6"-trans-p-coumaroyl)glucosid] | höchste antivirale Aktivität | 2.906 | 126 | > 90 | keinen antiviralen Effekt | keiner Reduktion der Viruslast | 134 | 1.862 | 433 | nicht gegen Hantaviren wirkt | > 90 | 932
